From patent US7767240B2, “Microbiological control in poultry processing” (priority 2001, dated 2010)

Legend:
Type in all cases: cell-based
[1] = tested on: total bacteria (S. sonnei, L. monocytogenes, E. coli, S. enteritidis, P. aeruginosa, C. jejuni); experiment: Total bacteria reduction from control over 20-day storage (Example 4); conditions: pH 8
Description: A study was conducted to determine the effect of Clorox® bleach, and 1,3-dibromo-5,5-dimethylhydantoin (DBDMH) on carcass bacteria residual after 1.5 hour in a chill tank solution and spoilage 20-day shelf life longevity (caused by bacteria contamination). Tests were conducted at pH 8 (adjusted by trisodium phosphate). Skin pigmentation (Minolta Color Meter L value or Lightness, a value or redness and b value or yellowness) were determined before and post-processing.
In general the study involved normal processing of 56-day-old birds, immersing carcasses first in a warm bath containing 10^4 per mL Escherichia coli, 10^4 per mL Salmonella enteritidis, 10^4 per mL Pseudomonas aeruginosa, 10^4 per mL Campylobacter jejuni, and 10^4 per mL spoilage bacteria each from […] strains (Listeria monocytogenes and Shigella sonnei). Carcass were then immersed in a chill tank “soup”, containing normal organic fluids (blood, fat, skin, and meat particles) and containing various disinfectants (termed test materials).
A DBDMH stock solution and test solutions, a bacteria stock solution, and a “chicken soup” were prepared as in Example 3. In addition, the bacterial broth treatments, the whole bird wash sampling procedure, and the methodologies used for quantitative or qualitative determinations for bacterial organisms were conducted as in Example 3.
In greater detail the trial events and experimental design used in this group of tests were as follows: • a) Test microorganisms used were: • Escherichia coli ATCC 11229 • Pseudomonas aeruginosa ATCC 15442 • Salmonella enteritidis ATCC 13076 • Shigella sonnei ATCC 9290 • Listeria monocytogenes ATCC 7644 • Campylobacter jejuni ATCC 29428 • b) Test Procedure: All test strains were grown individually at 35° C. for 24 hours in the media specified in Table 12. Cells were harvested by centrifugation at 10,000×g for 10 minutes and washed twice with Butterfield's Phosphate Buffer (BPB of pH 7.2). Cells were resuspended in BPB to obtain a cell suspension of approximately 1.0×10^8 CFU/mL for each microorganism. The target inoculum levels were approximately 10^6 CFU/mL in the final test solutions. In the cases of S. enteritidis and P. aeruginosa the species were washed by pouring into prepared sterile centrifuge tubes with cheesecloth filters. The culture was then pelleted and washed using above techniques and repeated 3 times. • c) The birds (56 days old) were processed under normal commercial conditions. • d) The bacteria were added to a large batch of the “chicken soup”, and then aliquots of the resultant mixture were distributed equally among the chill waters used for each test. Then the particular disinfectant composition under test was added to one of the chill waters. […]

[2] = tested on: Pseudomonas aeruginosa ATCC 15442; experiment: Individual bacteria count per bird at pH 8 (Example 3); conditions: 25 birds per treatment, control 2783
Description: (§1) This group of tests was conducted to determine the effect of Clorox® bleach, Aquatize® biocide, and 1,3-dibromo-5,5-dimethylhydantoin (DBDMH) on carcass bacteria (Escherichia coli field strain) residual after 1,5-hour in a chill tank “soup”. Tests were conducted with soups at pH 7, pH 8 and pH 9 (adjusted by trisodium phosphate) for whole bird bacteria counts. Tests at pH 8 were conducted for individual bacteria counts.
(§2) In general the tests involved normal processing of 56-day-old birds and immersing the carcasses first in a warm bath containing 10^4 per mL Escherichia coli, 10^4 per mL Salmonella enteritidis, 10^4 per mL Pseudomonas aeruginosa, 10^4 per mL Campylobacter jejuni, and 10^4 per mL spoilage bacteria each from […] strains (Listeria monocytogenes and Shigella sonnei). The carcasses were then immersed in a chill tank “soup”, containing normal organic fluids (blood, fat, skin, and meat particles) and containing the microbiocides on the test.
(§3) The bacteria stock solution used for this group of tests was prepared by growing each bacteria sample in the appropriate broth shown in Table 12. […] The containers were observed and not allowed to develop a heavy, cloudy visual appearance which would indicate that the growth had developed for too long a period. Thus the solutions had the appearance of only being foggy or somewhat unclear.
(§4) The procedure used for whole bird wash sampling was as follows: • 1. All samples were kept at ≦50 degrees Fahrenheit following collection. • 2. Microbiological analyses of samples began within 24 hours of sample collection. • 3. Information on the individual sample identification, date of collection, time of collection (phase during shift), treatment group and location of sample point were recorded on each sample bottle. • 4. At each defined sample time, carcasses were taken individually from the processing line wearing latex or rubber gloves. The gloves were rinsed with alcohol between each collection. • 5. Any excess fluid was drained off from the carcass. Each individual carcass was transferred to a sterile stomacher bag. • 6. To each carcass contained in the sterile stomacher bag, 400 mL of Butterfield's Phosphate Diluent (BPD) was added while making sure to pour the BPD into the inside of the carcass cavity. The carcass was rinsed inside and out with a rocking motion for one minute (ca. 35 RPM). This was best done by grasping the broiler carcass with one hand and the closed top of the bag with the other then rocking with a reciprocal motion in a 18-24 inch arc, assuring that all surfaces (interior and exterior of the carcass) were rinsed. • 7. The rinse solutions from each stomacher bag was transferred into the sample bottles, taking care to ensure that the information on the date of collection, time of collection (phase during shift), treatment group and location of sampler point matched that of the sample. • 8. Each bottle was sealed with parafilm and placed into a styrene container with crushed or dry ice or frozen freezer packs for overnight delivery to a testing laboratory. • 9. All filled styrene containers were held in a chilled (not below freezing) area until within 1 to 2 hours of courier collection for shipment.
(§5) In greater detail the trial events and experimental design used in this group of tests were as follows: • a) Test microorganisms used were: • Escherichia coli ATCC 11229 • Pseudomonas aeruginosa ATCC 15442 • Salmonella enteritidis ATCC 13076 • Shigella sonnei ATCC 9290 • Listeria monocytogenes ATCC 7644 • Campylobacter jejuni ATCC 29428 • b) Test Procedure: All test strains were grown individually at 35° C. for 24 hours in the media specified in Table 12. Cells were harvested by centrifugation at 10,000×g for 10 minutes and washed twice with Butterfield's Phosphate Buffer (BPB of pH 7.2). Cells were resuspended in BPB to obtain a cell suspension of approximately 1.0×10^8 CFU/mL for each microorganism. […]

[3] = tested on: Campylobacter jejuni ATCC 29428; experiment: as above; conditions: 25 birds per treatment, control 1282
Description: as §1, §2, §3, §4, §5

SMILES: CC1(C)C(=O)N(Br)C(=O)N1Br [DBDMH, 1,3-dibromo-5,5-dimethylhydantoin]
- Percentage of Total Bacteria Reduction From Control (Mean % Reduction From Control) ([1]; Day 0 post-processing, 10 ppm): 77.8%
- Percentage of Total Bacteria Reduction From Control (Mean % Reduction From Control) ([1]; Day 0 post-processing, 20 ppm): 99.5%
- Percentage of Total Bacteria Reduction From Control (Mean % Reduction From Control) ([1]; Day 2 post-processing, 10 ppm): 77.3%
- Percentage of Total Bacteria Reduction From Control (Mean % Reduction From Control) ([1]; Day 2 post-processing, 20 ppm): 99.4%
- Percentage of Total Bacteria Reduction From Control (Mean % Reduction From Control) ([1]; Day 4 post-processing, 10 ppm): 76.8%
- Percentage of Total Bacteria Reduction From Control (Mean % Reduction From Control) ([1]; Day 4 post-processing, 20 ppm): 99.2%
- Percentage of Total Bacteria Reduction From Control (Mean % Reduction From Control) ([1]; Day 6 post-processing, 10 ppm): 77.1%
- Percentage of Total Bacteria Reduction From Control (Mean % Reduction From Control) ([1]; Day 6 post-processing, 20 ppm): 98.5%
- Percentage of Total Bacteria Reduction From Control (Mean % Reduction From Control) ([1]; Day 8 post-processing, 10 ppm): 74.6%
- Percentage of Total Bacteria Reduction From Control (Mean % Reduction From Control) ([1]; Day 8 post-processing, 20 ppm): 97.3%
- Percentage of Total Bacteria Reduction From Control (Mean % Reduction From Control) ([1]; Day 10 post-processing, 10 ppm): 71.9%
- Percentage of Total Bacteria Reduction From Control (Mean % Reduction From Control) ([1]; Day 10 post-processing, 20 ppm): 95.1%
- Percentage of Total Bacteria Reduction From Control (Mean % Reduction From Control) ([1]; Day 12 post-processing, 10 ppm): 69.2%
- Percentage of Total Bacteria Reduction From Control (Mean % Reduction From Control) ([1]; Day 12 post-processing, 20 ppm): 91.2%
- Percentage of Total Bacteria Reduction From Control (Mean % Reduction From Control) ([1]; Day 14 post-processing, 10 ppm): 66.2%
- Percentage of Total Bacteria Reduction From Control (Mean % Reduction From Control) ([1]; Day 14 post-processing, 20 ppm): 84.3%
- Percentage of Total Bacteria Reduction From Control (Mean % Reduction From Control) ([1]; Day 16 post-processing, 10 ppm): 61.9%
- Percentage of Total Bacteria Reduction From Control (Mean % Reduction From Control) ([1]; Day 16 post-processing, 20 ppm): 71.2%
- Percentage of Total Bacteria Reduction From Control (Mean % Reduction From Control) ([1]; Day 18 post-processing, 10 ppm): 58.5%
- Percentage of Total Bacteria Reduction From Control (Mean % Reduction From Control) ([1]; Day 18 post-processing, 20 ppm): 68.0%
- Percentage of Total Bacteria Reduction From Control (Mean % Reduction From Control) ([1]; Day 20 post-processing, 10 ppm): 53.7%
- Percentage of Total Bacteria Reduction From Control (Mean % Reduction From Control) ([1]; Day 20 post-processing, 20 ppm): 67.2%
- average bacteria count per bird, P. aeruginosa ([2]; 10 ppm): 289 per bird
- average bacteria count per bird, P. aeruginosa ([2]; 20 ppm): 9 per bird
- average bacteria count per bird, C. jejuni ([3]; 10 ppm): 183 per bird
- average bacteria count per bird, C. jejuni ([3]; 20 ppm): 15 per bird
